Test results published in patent US9365541B2, “Compounds for use in the treatment of parasitic diseases” (IRBM—SCIENCE PARK S.P.A., priority 2012, dated 2016).

Experiments:
[1] = target: T1, human HDAC1 (Homo sapiens, UniProt Q13547); assay: Homo sapiens HDAC1 inhibition assay (Fluor-de-Lys, enzymatic); type: biochemical; details: human HDAC enzymatic assay; read-out: hHDAC IC50
T1 construct: made in house; host or cells: HeLa (ATCC CCL-2), mammalian cells
Procedure, shortened: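 Fluorogenic deacetylation read-out: trypsin developer, supplemented with 2 μM final TSA as stop, releases fluorophore from deacetylated substrate.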

[2] = test system: Plasmodium falciparum 3D7; assay: P. falciparum growth inhibition assay (Pf-LDH); type: cell-based; details: Plasmodium falciparum, Erythrocyte; P. falciparum 3D7 infected erythrocytes, 72 h incubation, PfLDH readout
Procedure, shortened: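 Compounds were tested against 72 h cultures of the 3D7 strain (0.25% parasitemia, 2% hematocrit, 37° C, low-oxygen gas). Parasite growth was quantified as lactate dehydrogenase activity via NBT reduction, absorbance 650 nm, after freezing and thawing.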

T1 sequence (Q13547 whole entry): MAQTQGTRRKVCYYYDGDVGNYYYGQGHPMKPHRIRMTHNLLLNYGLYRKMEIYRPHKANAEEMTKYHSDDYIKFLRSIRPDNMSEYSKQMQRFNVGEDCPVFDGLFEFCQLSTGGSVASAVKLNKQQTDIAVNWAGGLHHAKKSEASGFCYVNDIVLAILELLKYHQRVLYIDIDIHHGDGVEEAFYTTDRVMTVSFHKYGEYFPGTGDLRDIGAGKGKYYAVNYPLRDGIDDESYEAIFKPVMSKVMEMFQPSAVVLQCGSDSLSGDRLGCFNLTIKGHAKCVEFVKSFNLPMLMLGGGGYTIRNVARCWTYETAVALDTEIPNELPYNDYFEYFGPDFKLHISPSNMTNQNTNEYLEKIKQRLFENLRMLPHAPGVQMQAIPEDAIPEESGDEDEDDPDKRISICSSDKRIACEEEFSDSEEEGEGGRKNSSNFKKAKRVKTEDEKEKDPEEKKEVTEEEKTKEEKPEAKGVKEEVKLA

| SMILES | IC50 [1] | EC50 [2] |
| --- | --- | --- |
| CNC(=O)CCCCC[C@H](NC(=O)Cn1ccnn1)c1ncc(-c2ccc(-n3cccn3)cc2)[nH]1 [Entry 62, (S)-7-(2-(1H-1,2,3-triazol-1-yl)acetamido)-7-(5-(4-(1H-pyrazol-1-yl)phenyl)-1H-imidazol-2-yl)-N-methylheptanamide] | > 5 µM | > 5000 nM |
| CNC(=O)CCCCC[C@H](NC(=O)C1CCC1(F)F)c1ncc(-c2ccc(-c3ccn(C)n3)cc2)[nH]1 (stereo partly drawn) [Entry 91, 2,2-difluoro-N-((S)-1-(5-(4-(1-methyl-1H-pyrazol-3-yl)phenyl)-1H-imidazol-2-yl)-7-(methylamino)-7-oxo-heptyl)cyclobutane-carboxamide] | > 5 µM | > 5000 nM |
| CNC(=O)CCCCC[C@H](NC(=O)c1cnc(C)s1)c1ncc(-c2ccc(-c3ccn(C)n3)cc2)o1 [Entry 225, (S)-2-methyl-N-(1-(5-(4-(1-methyl-1H-pyrazol-3-yl)phenyl)oxazol-2-yl)-7-(methylamino)-7-oxoheptyl)thiazole-5-carboxamide] | > 5 µM | 1000 to 5000 nM |
| CNC(=O)CCCCC[C@H](NC(=O)C12CCN(CC1)CC2)c1ncc(-c2cc3ccccc3[nH]c2=O)[nH]1 [Entry 204, (S)-N-(7-(methylamino)-7-oxo-1-(5-(2-oxo-1,2-dihydroquinolin-3-yl)-1H-imidazol-2-yl)heptyl)quinuclidine-4-carboxamide] | 1 to 5 µM | > 5000 nM |
| CNC(=O)CCCCC[C@H](NC(=O)Cn1cnnc1)c1ncc(-c2ccc3ccccc3c2)[nH]1 [Entry 116, (S)-7-(2-(4H-1,2,4-triazol-4-yl)acetamido)-N-methyl-7-(5-(naphthalen-2-yl)-1H-imidazol-2-yl)heptanamide] | 1 to 5 µM | 1000 to 5000 nM |
| CNC(=O)CCCCC[C@H](NC(=O)c1cncs1)c1ncc(-c2ccc3cccnc3c2)[nH]1 [Entry 10] | > 5 µM | 1000 to 5000 nM |
| CNC(=O)CCCCC[C@H](NC(=O)CC1=CSC2=NCCCN12)c1ncc(-c2cc3ccccc3nc2OC)[nH]1 [Entry 201, (S)-7-(2-(6,7-dihydro-5H-thiazolo[3,2-a]pyrimidin-3-yl)acetamido)-7-(5-(2-methoxyquinolin-3-yl)-1H-imidazol-2-yl)-N-methylheptanamide] | 1 to 5 µM | < 1000 nM |
| CNC(=O)CCCCC[C@H](NC(=O)Cc1cnccn1)c1ncc(-c2ccc3ccccc3c2)[nH]1 [Entry 113] | 1 to 5 µM | 1000 to 5000 nM |
| CNC(=O)CCCCC[C@H](NC(=O)c1ccc(N2CC(=O)NC2=O)cc1)c1ncc(-c2ccc(-n3cccn3)cc2)[nH]1 [Entry 195, (S)-N-(1-(5-(4-(1H-pyrazol-1-yl)phenyl)-1H-imidazol-2-yl)-7-(methylamino)-7-oxoheptyl)-4-(2,4-dioxoimidazolidin-1-yl)benzamide] | > 5 µM | 1000 to 5000 nM |
| CNC(=O)CCCCC[C@H](NC(=O)c1cncs1)c1ncc(-c2ccc3occc3c2)[nH]1 [Entry 136, (S)-N-(1-(5-(benzofuran-5-yl)-1H-imidazol-2-yl)-7-(methylamino)-7-oxoheptyl)thiazole-5-carboxamide] | > 5 µM | > 5000 nM |
| CNC(=O)CCCCC[C@H](NC(=O)c1ccnn1C)c1ncc(-c2ccc(-c3ccn(C)n3)cc2)[nH]1 [Entry 213, (S)-1-methyl-N-(1-(5-(4-(1-methyl-1H-pyrazol-3-yl)phenyl)-1H-imidazol-2-yl)-7-(methylamino)-7-oxoheptyl)-1H-pyrazole-5-carboxamide] | > 5 µM | 1000 to 5000 nM |
| CNC(=O)CCCCC[C@H](NC(=O)c1cncs1)c1ncc(-c2ccc3[nH]ccc3c2)[nH]1 [Entry 24, (S)-N-(1-(5-(1H-indol-5-yl)-1H-imidazol-2-yl)-7-(methylamino)-7-oxoheptyl)thiazole-5-carboxamide] | 1 to 5 µM | < 1000 nM |
| CNC(=O)CCCCC[C@H](NC(=O)c1cccc2nc(C)c(C)nc12)c1ncc(-c2ccc3ccccc3c2)[nH]1 [Entry 13, (S)-2,3-dimethyl-N-(7-(methylamino)-1-(5-(naphthalen-2-yl)-1H-imidazol-2-yl)-7-oxo-heptyl)quinoxaline-5-carboxamide] | 1 to 5 µM | 1000 to 5000 nM |
| CNC(=O)CCCCC[C@H](NC(=O)C1CC(=O)Nc2ccccc21)c1ncc(-c2ccc3ccccc3c2)[nH]1 (stereo partly drawn) [Entry 198, N-((S)-7-(methylamino)-1-(5-(naphthalen-2-yl)-1H-imidazol-2-yl)-7-oxoheptyl)-2-oxo-1,2,3,4-tetrahydroquinoline-4-carboxamide] | 1 to 5 µM | < 1000 nM |
| CNC(=O)CCCCC[C@H](NC(=O)c1cnsc1)c1ncc(-c2ccc(-n3cccn3)cc2)[nH]1 [Entry 12, (S)-N-(1-(5-(4-(1H-pyrazol-1-yl)phenyl)-1H-imidazol-2-yl)-7-(methylamino)-7-oxoheptyl)isothiazole-4-carboxamide] | 1 to 5 µM | 1000 to 5000 nM |
| CNC(=O)CCCCC[C@H](NC(=O)C1CNC(=O)C1)c1ncc(-c2ccc3ccccc3c2)[nH]1 (stereo partly drawn) [Entry 166, N-((S)-7-(methylamino)-1-(5-(naphthalen-2-yl)-1H-imidazol-2-yl)-7-oxoheptyl)-5-oxopyrrolidine-3-carboxamide] | 1 to 5 µM | 1000 to 5000 nM |
| CNC(=O)CCCCC[C@H](NC(=O)Cc1ncccn1)c1ncc(-c2ccc3ccncc3c2)[nH]1 [Entry 207] | > 5 µM | 1000 to 5000 nM |
| CNC(=O)CCCCC[C@H](NC(=O)Cc1ncccn1)c1ncc(-c2ccc(-c3ccn(C)n3)cc2)[nH]1 [Entry 211] | > 5 µM | > 5000 nM |

Continued, values first:

| IC50 [1] | EC50 [2] | SMILES |
| --- | --- | --- |
| < 1 µM | < 1000 nM | CNC(=O)CCCCC[C@H](NC(=O)c1cncs1)c1ncc(-c2ccc3nc(OC)ccc3c2)[nH]1 [Entry 107, (S)-N-(1-(5-(2-methoxyquinolin-6-yl)-1H-imidazol-2-yl)-7-(methylamino)-7-oxoheptyl)thiazole-5-carboxamide] |
| 1 to 5 µM | 1000 to 5000 nM | CNC(=O)CCCCC[C@H](NC(=O)c1cnsc1)c1ncc(-c2ccc3[nH]ncc3c2)[nH]1 [Entry 34, (S)-N-(1-(5-(1H-indazol-5-yl)-1H-imidazol-2-yl)-7-(methylamino)-7-oxoheptyl)isothiazole-4-carboxamide] |
| 1 to 5 µM | 1000 to 5000 nM | CNC(=O)CCCCC[C@H](NC(=O)CC1=CSC2=NCCCN12)c1ncc(-c2ccc(-n3cccn3)cc2)[nH]1 [Entry 39, (S)-7-(5-(4-(1H-pyrazol-1-yl)phenyl)-1H-imidazol-2-yl)-7-(2-(6,7-dihydro-5H-thiazolo[3,2-a]pyrimidin-3-yl)acetamido)-N-methylheptanamide] |
| 1 to 5 µM | 1000 to 5000 nM | CNC(=O)CCCCC[C@H](NC(=O)c1nnc(C)o1)c1ncc(-c2cc3ccccc3nc2OC)[nH]1 [Entry 77, (S)-N-(1-(5-(2-methoxyquinolin-3-yl)-1H-imidazol-2-yl)-7-(methylamino)-7-oxoheptyl)-5-methyl-1,3,4-oxadiazole-2-carboxamide] |
| 1 to 5 µM | < 1000 nM | CNC(=O)CCCCC[C@H](NC(=O)c1cncs1)c1ncc(-c2cccc(CN)c2)[nH]1 [Entry 35, (S)-N-(1-(5-(3-(amino-methyl)phenyl)-1H-imidazol-2-yl)-7-(methylamino)-7-oxoheptyl)thiazole-5-carboxamide] |
| 1 to 5 µM | 1000 to 5000 nM | CNC(=O)CCCCC[C@H](NC(=O)Cc1n[nH]c(=O)[nH]1)c1ncc(-c2ccc3ccccc3c2)[nH]1 [Entry 115] |
| < 1 µM | < 1000 nM | CNC(=O)CCCCC[C@H](NC(=O)c1cnc(CN2CCCC2)s1)c1ncc(-c2ccc3ccncc3c2)[nH]1 [Entry 65, (S)-N-(1-(5-(isoquinolin-7-yl)-1H-imidazol-2-yl)-7-(methylamino)-7-oxoheptyl)-2-(pyrrolidin-1-ylmethyl)thiazole-5-carboxamide] |
| 1 to 5 µM | 1000 to 5000 nM | CNC(=O)CCCCC[C@H](NC(=O)c1cncs1)c1ncc(-c2ccc(NC(C)=O)cc2)[nH]1 [Entry 53, (S)-N-(1-(5-(4-acetamidophenyl)-1H-imidazol-2-yl)-7-(methylamino)-7-oxoheptyl)thiazole-5-carboxamide] |
| 1 to 5 µM | 1000 to 5000 nM | CNC(=O)CCCCC[C@H](NC(=O)c1cccc(-n2nc(C)cc2C)c1)c1ncc(-c2ccc3ccccc3c2)[nH]1 [Entry 42, (S)-3-(3,5-dimethyl-1H-pyrazol-1-yl)-N-(7-(methylamino)-1-(5-(naphthalen-2-yl)-1H-imidazol-2-yl)-7-oxo-heptyl)benzamide] |
| 1 to 5 µM | > 5000 nM | CNC(=O)CCCCC[C@H](NC(=O)CN1CCCC1)c1ncc(-c2ccc3ccncc3c2)[nH]1 [Entry 66] |
| < 1 µM | 1000 to 5000 nM | CNC(=O)CCCCC[C@H](NC(=O)Cc1c(C)[nH]c2ccc(OC)cc12)c1nnc(-c2ccc3ccccc3c2)o1 [Entry 200, (S)-7-(2-(5-methoxy-2-methyl-1H-indol-3-yl)acetamido)-N-methyl-7-(5-(naphthalen-2-yl)-1,3,4-oxadiazol-2-yl)heptanamide] |
| < 1 µM | 1000 to 5000 nM | CNC(=O)CCCCC[C@H](NC(=O)Cc1cnc2ccccc2c1)c1ncc(-c2ccc(-n3cccn3)cc2)[nH]1 [Entry 110] |
| < 1 µM | < 1000 nM | CNC(=O)CCCCC[C@H](NC(=O)c1cncs1)c1ncc(-c2ccc3ccccc3c2)[nH]1 [Entry 95, (S)-N-(7-(methylamino)-1-(5-(naphthalen-2-yl)-1H-imidazol-2-yl)-7-oxo-heptyl)thiazole-5-carboxamide] |
| < 1 µM | < 1000 nM | CNC(=O)CCCCC[C@H](NS(=O)(=O)c1cccc([N+](=O)[O-])c1)c1ncc(-c2ccc3ccccc3c2)[nH]1 [Entry 3] |
